{"source": "patent US8552011B2", "about": "“6-(C2-6alkylseleno)purines and methods for treating neural measles viral infection therewith” (priority 2008, dated 2013)", "key": {"[1]": {"test_system": "measles virus strain Edmonston (MV-E)", "assay": "Anti-viral screening, syncytia formation in infected HeLa cells", "assay_type": "cell-based", "method": "(§1) Viruses: Two strains of measles virus (MV) were evaluated in this study: 1) strain Edmonston (MV-E), the prototypical lab-adapted strain originally derived from the blood of a human patient in the acute phase of a typical infection, and 2) strain Halle (MV-H), a neurovirulent strain derived from a lymph node biopsy of a human patient with subacute sclerosing panencephalitis. One strain of herpes simplex virus (HSV) was evaluated: HSV-2 (strain G). This strain is a primary isolate derived from an active genital infection.\n(§2) Infection conditions: Cells (4×10^4 cells/well) were seeded in 24-well culture plates and pre-treated with ESP for 24 hr prior to infection. Cells were incubated with 100 μl of MV at the indicated MOI for 1 h at 37° C. before conditioned media containing the test compound and 5% FCS was replaced for the assay duration. MV replication was evaluated daily by microscopic analysis until cells were stained with 0.1% cresyl violet dye and scored for cytopathic effects. Similar conditions were employed for HSV-2 with the exception that infections were performed at 35° C. over a test period of 72 h."}, "[2]": {"test_system": "measles virus strain Halle (MV-H)", "assay": "Anti-viral screening, syncytia formation in infected HeLa cells", "assay_type": "cell-based", "conditions": "for reduction of syncytia formation: MV-H infected HeLa cells", "method": "as §1, §2"}, "[3]": {"test_system": "HeLa cells", "assay": "Overt cytotoxicity by microscopic analysis during the antiviral tests", "assay_type": "cell-based, human", "conditions": "for toxic effects: by 72 h PI", "excerpt": "(§3) Cells and cell culture: HeLa cells (human cervical carcinoma) were used for these studies. Cells were maintained in DMEM medium supplemented with 10% fetal calf serum (FCS) and antibiotics in a humidified, 5% CO2 environment. Cells were passaged as required by trypsinization.\n(§4) Evaluation of toxicity: Acute toxicity was quantified using a standard tetrazole reduction assay as a measure of cell proliferation/viability. Briefly, quadruplicate wells of HeLa cells (1×10^4 cells, 96-well plates) were incubated for 24 h with the ESP or DMSO as a control and the reduction of tetrazolium salt (MTT) to purple formazan by mitochondrial reductases enzymes in viable cells detected as a change in absorbance (λ=500-600 nm). Overt cytotoxicity was also evaluated qualitatively by microscopic analysis over longer exposure periods during the antiviral tests. Toxicity was considered to be evident if cell injury or loss was observed or a reduction in MTT activity of greater than twenty-five percent relative to controls was detected.\nas §2"}, "[4]": {"test_system": "HSV-2 (strain G)", "assay": "Anti-HSV screening, plaque formation in infected HeLa cells", "assay_type": "cell-based, herpes simplex virus", "conditions": "HSV-2, MOI 1, 0.1, 0.01, ESP 1, 0.5, 0.25, 0.1 μg/ml, 72 h", "method": "as §1, §2\n(4)—Anti-HSV screening: ESP was evaluated at 1, 0.5. 0.25, 0.1 and 0 μg/ml against HSV-2 at MOI=I, 0.1 and 0.01."}, "[5]": {"test_system": "HeLa cells", "assay": "MTT tetrazole reduction assay, acute toxicity", "assay_type": "cell-based, human", "conditions": "24 h incubation, 65, 10, 1, 0.1, 0.01, 0.001 ng/ml, 0.1% DMSO", "excerpt": "as §3, §4\n(1)—Evaluation of acute toxicity: ESP was assessed by MTT assay as described above using a series of dilutions (w/v): 65, 10, 1, 0.1, 0.01, 0.001 and 0 ng/ml. […] Toxicity was evaluated over a 24 h incubation period, a time period that corresponded to the pre-treatment phase of the anti-viral testing protocol."}}, "data": [{"compound": "CC[Se]c1ncnc2[nH]cnc12", "note": "[ESP]", "values": [{"measurement": "syncytia formation vs untreated controls", "setting": "[1]; anti-MV screening, MOI 1.0, 0.1, 0.01, ESP 5-0.1 ng/ml as printed", "result": "did not significantly decrease syncytia formation"}, {"measurement": "syncytia formation, treated vs untreated wells", "setting": "[1]; preliminary screening, MOI 1.0, 0.1, 0.01, Day 5 PI", "result": "syncytia formation did not differ between treated and untreated wells"}, {"measurement": "reduction of syncytia formation", "setting": "[2]; 0.1 μg/ml ESP", "result": 25, "unit": "%"}, {"measurement": "reduction of syncytia formation", "setting": "[2]; 1 μg/ml ESP", "result": 66, "unit": "%"}, {"measurement": "syncytia formation, treated vs vehicle controls", "setting": "[2]; preliminary screening, MV-H, MOI 1.0, 0.1, 0.01, Day 5 PI", "result": "a decrease in syncytia formulation was evident"}, {"measurement": "concentration usable in the absence of toxic effects", "setting": "[3]", "result": "≤ 1000", "unit": "ng/mL"}, {"measurement": "toxic effects", "setting": "[3]; 2.5 μg/ml", "result": "toxic effects were observed"}, {"measurement": "toxic effects", "setting": "[3]; 5 μg/ml", "result": "toxic effects were observed"}, {"measurement": "overt cytotoxicity", "setting": "[3]; 10 μg/ml, 72 h post-infection", "result": "overt cytotoxicity was observed"}, {"measurement": "overt cytotoxicity", "setting": "[3]; 65 μg/ml, 24 h post-infection", "result": "overt cytotoxicity was observed"}, {"measurement": "toxicity during pre-treatment phase", "setting": "[3]; 24 h pre-treatment before infection, 65-0.01 μg/ml", "result": "no toxicity was evident"}, {"measurement": "toxicity", "setting": "[3]; concentrations less than or equal to 1 μg/ml, time-frames approaching one week", "result": "No toxicity was observed"}, {"measurement": "viral replication as evidenced by plaque formation, vs vehicle controls", "setting": "[4]", "result": "No difference in viral replication"}, {"measurement": "acute toxicity (MTT assay)", "setting": "[5]", "result": "toxicity was not observed"}]}]}
